# Experimental data published in patent US20240058268A1, “METHODS OF TREATING SKIN DISORDERS” (priority 2021, published 2024).
# Tested on: acne papule biopsies of subjects with moderate inflammatory acne of the back
# Test: Large scale gene expression profiling of skin biopsies (Affymetrix U133 Plus 2.0)
# Format: in vivo, human
# Method: Subjects with moderate inflammatory acne of the back were treated with a 0.005% trifarotene or vehicle cream on dedicated back areas for 27 days, and 4 biopsies were collected on each subject (non-involved skin, acne papule, Trifarotene and vehicle treated site). Large scale gene expression profiling of the biopsies was performed using Affymetrix technology, and treatment specific gene expression profiles were generated using statistical modeling. Clinical investigations were conducted in accordance with the Declaration of Helsinki principles, and the ICH Guideline for Good Clinical Practice. The clinical study received approval from the ethics committee of Brest, France (reference CPP Quest 6-755). This was a post-hoc analysis of data collected from 9 patients aged 18-35 with acne vulgaris (EUDRACT No. 2012-001943-36). In the 4-week open-label clinical study, subjects received once-daily applications of trifarotene 0.005% cream and vehicle cream on the back. Each patient had four biopsies performed, 1 from skin without visible acne lesion (non-involved skin) and three at the site of acne papule, with the following timing: one prior to treatment (day 0), one after vehicle treatment (day 27), and one after trifarotene treatment (day 27). Aubert et al, Br J Dermatol., 2018 August; 179(2):442-456. Samples were collected for large-scale gene expression profiling. Subjects provided written informed consent prior to biopsies. Subjects with moderate inflammatory acne on the back at the screening visit, defined by scores of between 2 and 4 for the whole back, with at least one area scored at 2 and a maximum of three nodules using the ECLA (Acne Lesion Score Scale) scale, were included in the study. Each subject had at least 2 papules 48 hours old, one on each half of the back. Subjects were excluded if they had active skin disease or inflammation other than acne, underlying known conditions which could interfere with study results, history of allergy to local anesthetics and/or topical antiseptics, history of bleeding disorder, or pregnancy/lactation (females). Predefined washout periods were mandated for acne treatments, immunosuppressants, immunomodulators, systemic corticosteroids, and isotretinoin. Study personnel applied treatment to patients' backs with trifarotene cream (right side) or vehicle (left side) once daily for 28 days excluding weekends (n=19 applications). Biopsies of nonlesional areas of trifarotene- and vehicle-treated skin were made under local anaesthesia at day 27 as shown in FIG. 1. Biopsies were stored in RNAlater TissueProtect Tubes (Qiagen, Les Ulis, France). Bioinformatics Analysis: Data analysis was performed using Array Studio software (Omicsoft Corporation, Cary, NC, USA). Affymetrix U133 Plus 2.0 chips (GeneChipTM, Santa Clara, CA, USA) were normalized using the multi-array average (RMA) method (See […], et al. Exploration, normalization, and summaries of high density oligonucleotide array probe level data. Biostatistics, 2003; 4:249-64.) Low expression probe-sets were filtered. Only Affymetrix identifiers with expression ≥2^6 in at least 5 samples in one condition were selected for further statistical analysis, resulting in data for 36245 out of the 54675 probe-sets present on the HG U133 Plus 2.0 array. Mean expression levels were obtained by calculating the geometric means of the RMA-normalized data. A linear model was fitted to the normalized data, and statistical testing of the comparisons of interest were performed using a moderated t-test. Paired-test was used when applicable. P values were adjusted for multiple testing using the Benjamini-Hochberg false discovery rate (FDR) method (See e.g., Benjamini Y, et al., Controlling the false discovery rate in behavior genetics research. Behav Brain Res, 2001; 125:279-84). Candidate differentially expressed genes were selected using a combination of fold-change and […]; genes with absolute fold change>2 and FDA<0.05 were considered as candidate differentially expressed genes. […]
# [1] = lesional skin after 0.005% cream (day 27) vs before treatment
smiles,measurement,setting,value
"CC(C)(C)c1cc(-c2cc(-c3ccc(C(=O)O)cc3)ccc2OCCO)ccc1N1CCCC1 [Trifarotene, 3″-tert-Butyl-4′-(2-hydroxy-ethoxy)-4″-pyrrolidin-1-yl-[1,1′,3′,1″ ]terphenyl-4-carboxylic acid]",number of genes upregulated among the 67 genes regulated,"LINC01224, INA, GABRA4, PXMP4",four
same,number of genes uniquely downregulated (not in spontaneously resolving signature),"absolute fold change>2, genes of inflammatory cell infiltration and extracellular matrix reorganization",67 genes
same,"number of genes in common between acne lesion profile and trifarotene-treated lesion profile, all reversed",acne signature vs trifarotene signature,354 genes
same,Fold Change R3 vs L1: ADAM12 (226777_at),[1],−3.84
same,Fold Change R3 vs L1: ADAMDEC1 (206134_at),[1],−6.29
same,Fold Change R3 vs L1: APELA (1559280_a_at),[1],−2.70
same,Fold Change R3 vs L1: ARHGAP9 (224451_x_at),[1],−2.14
same,Fold Change R3 vs L1: BCAT1 (214452_at),[1],−3.66
same,Fold Change R3 vs L1: BIRC3 (210538_s_at),[1],−2.23
same,Fold Change R3 vs L1: CBLN2 (242301_at),[1],−2.61
same,Fold Change R3 vs L1: CCDC71L (229521_at),[1],−2.26
same,Fold Change R3 vs L1: CCNA1 (205899_at),[1],−3.55
same,Fold Change R3 vs L1: CD37 (204192_at),[1],−2.13
same,Fold Change R3 vs L1: CD69 (209795_at),[1],−2.10
same,Fold Change R3 vs L1: CD80 (1554519_at),[1],−4.03
same,Fold Change R3 vs L1: CD84 (230391_at),[1],−2.57
same,Fold Change R3 vs L1: CLEC4A (221724_s_at),[1],−2.32
same,Fold Change R3 vs L1: CTLA4 (236341_at),[1],−2.54
same,Fold Change R3 vs L1: CYTH4 (219183_s_at),[1],−2.36
same,Fold Change R3 vs L1: DMXL2 (215761_at),[1],−2.35
same,Fold Change R3 vs L1: EVI2B (211742_s_at),[1],−2.35
same,Fold Change R3 vs L1: FERMT3 (223303_at),[1],−2.12
same,Fold Change R3 vs L1: FNDC3B (229865_at),[1],−2.35
same,Fold Change R3 vs L1: GABRA4 (208463_at),[1],2.26
same,Fold Change R3 vs L1: GASK1B (219872_at),[1],−2.30
same,Fold Change R3 vs L1: GLIPR1 (204222_s_at),[1],−2.48
same,Fold Change R3 vs L1: GLIPR2 (225604_s_at),[1],−2.24
same,Fold Change R3 vs L1: GLIS3 (229435_at),[1],−3.07
same,Fold Change R3 vs L1: GPRIN3 (1556698_a_at),[1],−2.27
same,Fold Change R3 vs L1: HLA-DPA1 (213537_at),[1],−2.14
same,Fold Change R3 vs L1: HP (206697_s_at),[1],−2.99
same,Fold Change R3 vs L1: IL2RG (204116_at),[1],−2.28
same,Fold Change R3 vs L1: IL18BP (222868_s_at),[1],−2.37
same,Fold Change R3 vs L1: INA (204465_s_at),[1],2.34
same,Fold Change R3 vs L1: IRF8 (204057_at),[1],−2.02
same,Fold Change R3 vs L1: ITGAX (210184_at),[1],−2.85
same,Fold Change R3 vs L1: KLHL6 (1555275_a_at),[1],−3.05
same,Fold Change R3 vs L1: LINC01224 (233142_at),[1],3.51
same,Fold Change R3 vs L1: LOXL2 (202998_s_at),[1],−2.18
same,Fold Change R3 vs L1: LPXN (216250_s_at),[1],−2.25
same,Fold Change R3 vs L1: LY86 (205859_at),[1],−2.18
same,Fold Change R3 vs L1: MMP12 (204580_at),[1],−11.13
same,Fold Change R3 vs L1: MMP13 (205959_at),[1],−4.3
same,Fold Change R3 vs L1: MMP19 (204575_s_at),[1],−2.71
same,Fold Change R3 vs L1: MSR1 (214770_at),[1],−2.45
same,Fold Change R3 vs L1: NCEH1 (225847_at),[1],−2.70
same,Fold Change R3 vs L1: NRP2 (223510_at),[1],−2.46
same,Fold Change R3 vs L1: P2RY8 (229686_at),[1],−2.23
same,Fold Change R3 vs L1: P2RY10 (236280_at),[1],−2.05
same,Fold Change R3 vs L1: PAPSS2 (203060_s_at),[1],−2.60
same,Fold Change R3 vs L1: PARVG (223562_at),[1],−2.23
same,Fold Change R3 vs L1: PTHLH (211756_at),[1],−2.55
same,Fold Change R3 vs L1: PTPN22 (236539_at),[1],−2.27
same,Fold Change R3 vs L1: PTPRO (208121_s_at),[1],−2.26
same,Fold Change R3 vs L1: PXMP4 (238746_at),[1],2.14
same,Fold Change R3 vs L1: RAC2 (207419_s_at),[1],−2.03
same,Fold Change R3 vs L1: RHOH (204951_at),[1],−2.57
same,Fold Change R3 vs L1: SELP (206049_at),[1],−2.10
same,Fold Change R3 vs L1: SELPLG (209879_at),[1],−2.06
same,Fold Change R3 vs L1: SH2B3 (203320_at),[1],−2.26
same,Fold Change R3 vs L1: SIRPB1 (206934_at),[1],−2.45
same,Fold Change R3 vs L1: SLAMF7 (219159_s_at),[1],−2.49
same,Fold Change R3 vs L1: SLC6A14 (219795_at),[1],−2.04
same,Fold Change R3 vs L1: SNAP25 (202508_s_at),[1],−2.40
same,Fold Change R3 vs L1: TRG-AS1 (239237_at),[1],−2.33
same,Fold Change R3 vs L1: TYROBP (204122_at),[1],−2.39
same,Fold Change R3 vs L1: VCAN (215646_s_at),[1],−2.43
same,Fold Change R3 vs L1: XCL1 (206366_x_at),[1],−2.02
